According to patent US20260297087A1, “Pyridoimidazolone Compounds, Preparation Thereof and Therapeutic Uses Thereof” (Sanofi, priority 2023, published 2026):

What was measured:
[1] = target: T1, ERK5 (Homo sapiens, UniProt Q13164); assay: Inhibition of Cellular ERK5 Activity (cell-based assay, MEF2 luciferase reporter in SN12C cells); conditions: renal cancer cell line SN12C, doxycycline-induced MEKSDD, mean where repeated
T1 construct: MEF2-luciferase reporter
Experimental: (§1) Two assays were performed to assess the ERK5 inhibitory activity of compounds of the Examples, a cell-based assay and a cell-free biochemical assay. Where repeat measurements were taken, the value reported is a mean average.
The renal cancer cell line SN12C was transduced by a lentivirus pGreenFire1 MEF2 EF1 Neo (ref TR030VA-N) from SBI using standard infection protocol. pGreenFire1 MEF2 EF1 Neo allows the expression of luciferase gene under the control of minimal promoter with MEF2 transcriptional response elements. Cells harboring the reporter construct were selected by geneticin treatment. The selected cells were then transposed by a piggyback based plasmid pCM4007 allowing the expression of constitutively activated MEKSDD under control of TREG3 promoter, a doxycycline regulated promoter. Transposed cells were selected by puromycin treatment. Upon doxycycline treatment (1p g/ml) MEKSDD was expressed. MEKSDD activates ERK5 that phosphorylates MEF2C protein. Activated MEF2C protein can bind to its transcriptional response elements. Then the luciferase is expressed. In a 96-well plate (96F nuncleon refl37101 thermofisher), 50,000 cells were inoculated in 142.5 μl of RPMI medium containing 10% fetal calf serum, 1% glutamine, and 1 μg/ml doxycycline. After 24 hours, compounds were added in 7.5 μl culture medium (with 2% DMSO to give a final concentration of 0.1%) in order to obtain the desired concentration (0.3-1000 nM). The luciferase activity was measured using the Kit Bright Glo Luminescent Cell Assay Cat E2610 (Promega) according to the manufacturer's protocol. Luminescence was determined using 0.2 second reading/well using a Tecan SPARK. IC50 values were calculated using XLFIT5 for Microsoft Excel using method 205. The IC50 values represent the concentration of compound which inhibits the measurable luminescence signal by 50% as compared to DMSO-treated control cells.

[2] = target: T2, ERK5 (activated catalytic domain) (Homo sapiens, UniProt Q13164); assay: Cell-Free Assay of ERK5 Inhibition (Time-Resolved FRET, 4EBP1 peptide phosphorylation); type: biochemical; conditions: ERK5 catalytic domain 4 nM, 1 mM ATP, 1 μM biotinylated 4EBP1 peptide, 30 min at 37° C.; mean where repeated; read-out: Cell-free assay (IC50 in nM)
T2 construct: purchased CarnaBiosciences 04-146
Experimental: as §1
An assay was performed to measure the capacity of each compound to inhibit ERK5 enzymatic activity. Compound potency was evaluated by Time-Resolved Forster Resonance Energy Transfer (FRET system). The activated catalytic domain of protein ERK5 (CarnaBiosciences #04-146) was mixed at 4 nM with varying concentrations of compound and incubated for 30 minutes at room temperature. A mixture of 1 mM ATP and 1 μM biotinylated synthetic peptide was added (Biosyntan GmbH). This synthetic peptide represents amino acids 30-52 of Eukaryotic translation initiation factor 4E-binding protein 1 (see, e.g., the sequence under accession No. NP_004086.1) biotinylated at the N-terminus. After 30 minutes at 37° C., the peptide phosphorylation by ERK5 was measured by addition of FRET reagents consisting of 12.5 μg/ml Streptavidin-XL665, 1 nM Anti-P-4EBP1 antibody and 300 ng/ml Anti-rabbit-K antibody. Following 90 minutes at room temperature fluorescent signals were read on the Pherastar FSX multimod detector from BMG Labtech (Exc° 340 nm, Em1 620 nm, Em2 665 nm). The IC50 values represent the concentration of compound which inhibits the measurable fluorescence signal by 50% as compared to the DMSO only control.

T2 sequence (Q13164 55-347 limits assumed): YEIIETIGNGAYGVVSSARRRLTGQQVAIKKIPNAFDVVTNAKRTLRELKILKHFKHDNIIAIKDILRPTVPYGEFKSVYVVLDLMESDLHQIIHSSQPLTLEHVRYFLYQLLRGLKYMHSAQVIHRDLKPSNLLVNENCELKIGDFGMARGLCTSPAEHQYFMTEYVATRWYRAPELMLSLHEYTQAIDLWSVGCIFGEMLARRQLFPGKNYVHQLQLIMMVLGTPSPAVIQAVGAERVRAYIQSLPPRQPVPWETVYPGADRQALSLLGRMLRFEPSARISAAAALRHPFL
T1 sequence (Q13164 whole entry): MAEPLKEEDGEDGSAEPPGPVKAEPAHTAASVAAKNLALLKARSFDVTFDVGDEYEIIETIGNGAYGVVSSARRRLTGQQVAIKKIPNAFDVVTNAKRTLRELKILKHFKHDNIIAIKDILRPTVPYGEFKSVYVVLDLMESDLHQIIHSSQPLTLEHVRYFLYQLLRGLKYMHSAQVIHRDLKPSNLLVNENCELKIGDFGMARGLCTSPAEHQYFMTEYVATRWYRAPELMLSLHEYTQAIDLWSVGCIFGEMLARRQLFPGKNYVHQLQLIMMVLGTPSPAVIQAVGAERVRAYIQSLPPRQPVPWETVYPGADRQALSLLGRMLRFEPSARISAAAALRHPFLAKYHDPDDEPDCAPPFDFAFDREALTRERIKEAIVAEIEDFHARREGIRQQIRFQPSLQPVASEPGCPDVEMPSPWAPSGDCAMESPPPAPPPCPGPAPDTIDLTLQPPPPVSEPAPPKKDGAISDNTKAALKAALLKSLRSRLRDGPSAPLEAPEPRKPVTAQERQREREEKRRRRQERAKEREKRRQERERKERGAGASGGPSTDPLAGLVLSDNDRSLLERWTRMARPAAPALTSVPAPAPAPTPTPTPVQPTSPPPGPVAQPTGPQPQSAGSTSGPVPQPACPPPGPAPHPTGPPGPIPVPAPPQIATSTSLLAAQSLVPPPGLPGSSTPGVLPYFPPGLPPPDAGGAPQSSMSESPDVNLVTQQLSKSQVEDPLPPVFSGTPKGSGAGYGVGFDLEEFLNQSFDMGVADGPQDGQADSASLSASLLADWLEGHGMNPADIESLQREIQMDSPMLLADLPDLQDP

IC50 [1] [nM]	IC50 [2] [nM]	Compound
150	77	CN1CCC(Oc2cnc3[nH]c(=O)n(C4CCN(C(=O)c5ccc(OC(F)(F)F)cc5N)CC4)c3c2)C1 (racemic) [Example 6, (rac)-1-[1-[2-amino-4-(trifluoromethoxy)benzoyl]-4-piperidyl]-6-(1-methylpyrrolidin-3-yl)oxy-3H-imidazo[4,5-b]pyridin-2-one]
413	287	CN1CCC(Oc2cnc3[nH]c(=O)n(C4CCN(C(=O)c5ccc(OC(F)(F)F)cc5)CC4)c3c2)C1 (racemic) [Example 9, (rac)-6-(1-methylpyrrolidin-3-yl)oxy-1-[1-[4-(trifluoromethoxy)benzoyl]-4-piperidyl]-3H-imidazo[4,5-b]pyridin-2-one]
282	203	O=C(c1ccc(OC(F)(F)F)cc1)N1CCC(n2c(=O)[nH]c3ncc(C4CCOC4)cc32)CC1 (racemic) [Example 15, (rac)-6-Tetrahydrofuran-3-yl-1-[1-[4-(trifluoromethoxy)benzoyl]-4-piperidyl]-3H-imidazo[4,5-b]pyridin-2-one]
138	85	Nc1cc(OC(F)(F)F)ccc1C(=O)N1CCC(n2c(=O)[nH]c3ncc(C4CCOC4)cc32)CC1 (racemic) [Example 16, (rac)-1-[1-[2-Amino-4-(trifluoromethoxy)benzoyl]-4-piperidyl]-6-tetrahydrofuran-3-yl-3H-imidazo[4,5-b]pyridin-2-one]
140	684	Nc1cc(OC(F)(F)F)ccc1C(=O)N1CCC(n2c(=O)[nH]c3ncc(C4CCNC(=O)C4)cc32)CC1 (racemic) [Example 22, (rac)-1-[1-[2-amino-4-(trifluoromethoxy)benzoyl]-4-piperidyl]-6-(2-oxo-4-piperidyl)-3H-imidazo[4,5-b]pyridin-2-one]
184	86	Nc1cc(OC(F)(F)F)ccc1C(=O)N1CCC(n2c(=O)[nH]c3ncc(CC4CCOC4)cc32)CC1 (racemic) [Example 23, (rac)-1-[1-[2-amino-4-(trifluoromethoxy)benzoyl]-4-piperidyl]-6-(tetrahydrofuran-3-ylmethyl)-3H-imidazo[4,5-b]pyridin-2-one]
57	377	Nc1cc(OC(F)(F)F)ccc1C(=O)N1CCC(n2c(=O)[nH]c3ncc(C4CCCO4)cc32)CC1 (racemic) [Example 25, (rac)-1-[1-[2-amino-4-(trifluoromethoxy)benzoyl]-4-piperidyl]-6-tetrahydrofuran-2-yl-3H-imidazo[4,5-b]pyridin-2-one]
–	533	Nc1cc(OC(F)(F)F)ccc1C(=O)N1CCC(n2c(=O)[nH]c3ncc(C45CCNCC4C5)cc32)CC1 (racemic) [Example 28, (rac)-1-[1-[2-amino-4-(trifluoromethoxy)benzoyl]-4-piperidyl]-6-(3-azabicyclo[4.1.0]heptan-6-yl)-3H-imidazo[4,5-b]pyridin-2-one, 2,2,2-trifluoroacetic acid]
170	288	Nc1cc(OC(F)(F)F)ccc1C(=O)N1CCC(n2c(=O)[nH]c3ncc(C45CCOCC4C5)cc32)CC1 (racemic) [Example 31, (rac)-1-[1-[2-amino-4-(trifluoromethoxy)benzoyl]-4-piperidyl]-6-(3-oxabicyclo[4.1.0]heptan-6-yl)-3H-imidazo[4,5-b]pyridin-2-one]
217	974	Nc1cc(OC(F)(F)F)ccc1C(=O)N1CCC(n2c(=O)[nH]c3ncc(C45CCCCC4C5)cc32)CC1 (racemic) [Example 34, (rac)-1-[1-[2-amino-4-(trifluoromethoxy)benzoyl]-4-piperidyl]-6-norcaran-1-yl-3H-imidazo[4,5-b]pyridin-2-one]
541	1470	Nc1cc(OC(F)(F)F)ccc1C(=O)N1CCC(n2c(=O)[nH]c3ncc(C4CCCCO4)cc32)CC1 (racemic) [Example 38, (rac)-1-[1-[2-amino-4-(trifluoromethoxy)benzoyl]-4-piperidyl]-6-tetrahydropyran-2-yl-3H-imidazo[4,5-b]pyridin-2-one]
168	291	Nc1cc(OC(F)(F)F)ccc1C(=O)N1CCC(n2c(=O)[nH]c3ncc(C4CCCOC4)cc32)CC1 (racemic) [Example 40, (rac)-1-[1-[2-amino-4-(trifluoromethoxy)benzoyl]-4-piperidyl]-6-tetrahydropyran-3-yl-3H-imidazo[4,5-b]pyridin-2-one]
278	587	Nc1cc(S(F)(F)(F)(F)F)ccc1C(=O)N1CCC(n2c(=O)[nH]c3ncc(C4CCOCC4)cc32)C1 (racemic) [Example 49, (rac)-1-[1-[2-amino-4-(pentafluoro-λ^6-sulfanyl)benzoyl]pyrrolidin-3-yl]-6-tetrahydropyran-4-yl-3H-imidazo[4,5-b]pyridin-2-one]
361	1620	O=C(c1ccc(S(F)(F)(F)(F)F)cc1)N1CCC(n2c(=O)[nH]c3ncc(C4CCOCC4)cc32)C1 (racemic) [Example 50, (rac)-1-[1-[4-(pentafluoro-λ^6-sulfanyl)benzoyl]pyrrolidin-3-yl]-6-tetrahydropyran-4-yl-3H-imidazo[4,5-b]pyridin-2-one]
202	–	O=C(c1ccc(OC(F)(F)F)cc1)N1CCC(n2c(=O)[nH]c3ncc([C@@H]4CCC[C@@H](O)CC4)cc32)CC1 (racemic) [Example 61, (rac)-trans-6-(4-hydroxycycloheptyl)-1-[1-[4-(trifluoromethoxy)benzoyl]-4-piperidyl]-3H-imidazo[4,5-b]pyridin-2-one]
257	–	O=C(c1ccc(OC(F)(F)F)cc1)N1CCC(n2c(=O)[nH]c3ncc([C@H]4CCC[C@@H](O)CC4)cc32)CC1 (racemic) [Example 62, (rac)-cis-6-(4-hydroxycycloheptyl)-1-[1-[4-(trifluoromethoxy)benzoyl]-4-piperidyl]-3H-imidazo[4,5-b]pyridin-2-one]
254	–	O=C1CCCC(c2cnc3[nH]c(=O)n(C4CCN(C(=O)c5ccc(OC(F)(F)F)cc5)CC4)c3c2)CC1 (racemic) [Example 63, (rac)-6-(4-oxocycloheptyl)-1-[1-[4-(trifluoromethoxy)benzoyl]-4-piperidyl]-3H-imidazo[4,5-b]pyridine-2-one]
547	–	O=C(c1ccc(OC(F)(F)F)cc1)N1CCC(n2c(=O)[nH]c3ncc([C@@H]4CCCC[C@@H](O)C4)cc32)CC1 (racemic) [Example 66, (rac)-trans-6-(3-hydroxycycloheptyl)-1-[1-[4-(trifluoromethoxy)benzoyl]-4-piperidyl]-3H-imidazo[4,5-b]pyridin-2-one]
358	–	O=C(c1ccc(OC(F)(F)F)cc1)N1CCC(n2c(=O)[nH]c3ncc([C@H]4CCCC[C@@H](O)C4)cc32)CC1 (racemic) [Example 67, (rac)-cis-6-(3-hydroxycycloheptyl)-1-[1-[4-(trifluoromethoxy)benzoyl]-4-piperidyl]-3H-imidazo[4,5-b]pyridin-2-one]
358	–	O=C(c1ccc(OC(F)(F)F)cc1)N1CCC(n2c(=O)[nH]c3ncc(C4CCCC(=NO)CC4)cc32)CC1 (single isomer, unassigned; isomer 1) [Example 64, (rac)-6-[(4E/Z)-4-hydroxyiminocycloheptyl]-1-[1-[4-(trifluoromethoxy)benzoyl]-4-piperidyl]-3H-imidazo[4,5-b]pyridin-2-one, Isomer 1]
575	–	O=C(c1ccc(OC(F)(F)F)cc1)N1CCC(n2c(=O)[nH]c3ncc(C4CCCC(=NO)CC4)cc32)CC1 (single isomer, unassigned; isomer 2) [Example 65, (rac)-6-[(4E/Z)-4-hydroxyiminocycloheptyl]-1-[1-[4-(trifluoromethoxy)benzoyl]-4-piperidyl]-3H-imidazo[4,5-b]pyridin-2-one, Isomer 2]
